Usually EC50 stands for the concentration at which the effect is half-maximal. Usually efflux ratio stands for the permeability from basolateral to apical divided by that in the opposite direction, in the common usage.

Molecules are shown by their SMILES.

The first data set has as its system HEK293T/17-ATF4 uORF-Luc-Puro monoclonal cells. Description: Cell activity test: ATF4 luciferase reporter, thapsigargin-induced stress. Particulars: Homo sapiens, HEK-293T; ATF4 reporter expression, 50 nM thapsigargin, 6 hours. The data set is classed as cell-based. The source says: The ATF4 luciferase reporter plasmid consists of two parts, i.e., the 5′ untranslated region sequence of the ATF4 gene and the luciferase coding sequence. Specifically, the ATF4 5′ untranslated region sequence (NCBI database number BC022088.2) containing two upstream open reading frames (uORFs), and the firefly luciferase encoding gene were cloned into the pLVX-Puro vector (YouBio, VT1465). The lentivirus packaging plasmids were psPAX2 (YouBio, VT1444) and pMD2.G (YouBio, VT1443). HEK293T/17 cells were transfected with the above three plasmids simultaneously using X-tremeGENE 9 DNA transfection reagent, and after 48 hours, a culture medium containing lentivirus was collected. HEK293T/17 cells transduced with the virus were screened with 1 μg/mL puromycin, and then monoclonal cells were obtained by limiting dilution.
By using this cell line and the cold fluorescence readings, the translational regulation of ATF4 can be detected, and the activity of the eIF2B activator can be tested. The specific experimental process is as follows: 6000 HEK293T/17-ATF4 uORF-Luc-Puro monoclonal cells were plated in a 384-well plate and allowed to adhere overnight. The test compounds were dissolved in DMSO and added together with 50 nM thapsigargin to the cell culture medium and incubated for 6 hours, wherein the thapsigargin was used to cause cellular stress and upregulate the protein translation of ATF4. Six hours after the addition, the cells were lysed using the One-Glo Luciferase Assay Kit (Promega #E6120), and then the cold fluorescence values were read using the LUM program of the EnVision 2104 plate reader.
The ATF4 reporter expression % was calculated as follows:
[formula] • ave_vc: average signal value of negative control • ave_pc: average signal value of positive control • ave_sample: average signal value of sample
The dose-response curves were fitted, and the EC50 values were calculated.
The nonlinear regression log (inhibitor) vs. response—variable slope (four parameters) method of GraphPad 9 software was used to fit the corresponding relationship between the ATF4 reporter expression % and the compound concentration.
X-axis: log value of compound concentration; Y-axis: ATF4 reporter expression %; Top: evaluation of upper asymptote of curve; Bottom: evaluation of lower asymptote of curve; Hillslope: slope of the fitted curve.
`C[C@@H]1[C@H](OC(F)(F)F)CN1c1nnc([C@H]2CC[C@H](NC(=O)COc3ccc(Cl)c(F)c3)CC2)o1` [Compound 51-2] returned an EC50 greater than 100 nM. The same measure, in the same setting: next, `O=C(COc1cc(F)c(Cl)cc1F)N[C@H]1CC[C@H](c2nnc(N3CC(OC(F)(F)F)C3)o2)CC1` [Compound 48]: 1 to 10 nM; `O=C(COc1ccc(Cl)cc1)N[C@H]1CC[C@H](c2nnc(N3CC(OC(F)(F)F)C3)o2)CC1` [Compound 15]: less than 1 nM; `O=C(COc1ccc(Cl)c(F)c1)NN1CCC(c2nnc(N3CC(OC(F)(F)F)C3)o2)CC1` [Compound 7]: less than 1 nM. Same read-out and setting: next, `O=C(COc1cccc(F)c1)N[C@H]1CC[C@H](c2nnc(N3CC(OC(F)(F)F)C3)o2)CC1` [Compound 24]: 10 to 100 nM. The same measure, in the same setting: next, `O=C(N[C@H]1CC[C@H](c2nnc(N3CC(OC(F)(F)F)C3)o2)CC1)c1ccc2c(c1)CCCO2` [Compound 46]: greater than 100 nM; `O=C(COc1ccc(Cl)c(F)c1)N[C@@H]1CC[C@@H](c2nnc(N3CC(OC(F)(F)F)C3)o2)OC1` [Compound 16]: 1 to 10 nM; `O=C(COc1ccccc1Cl)N[C@H]1CC[C@H](c2nnc(N3CC(OC(F)(F)F)C3)o2)CC1` [Compound 22]: greater than 100 nM. In the case of `O=C(COc1ccc(Cl)cc1Cl)N[C@H]1CC[C@H](c2nnc(N3CC(OC(F)(F)F)C3)o2)CC1` [Compound 27], the concentration giving a half-maximal response (EC50) fell in the range of 10 to 100 nM.

In turn, `O=C(COc1ccc(Cl)c(Br)c1)N[C@H]1CC[C@H](c2nnc(N3CC(OC(F)(F)F)C3)o2)CC1` [Compound 26] registered an EC50 of less than 1 nM. On the same count and under the same terms, in the case of `O=C(COc1ccc(F)c(F)c1)N[C@H]1CC[C@H](c2nnc(N3CC(OC(F)(F)F)C3)o2)CC1` [Compound 34] it was 1 to 10 nM; in that of `O=C(COc1cc(F)c(Cl)cc1Cl)N[C@H]1CC[C@H](c2nnc(N3CC(OC(F)(F)F)C3)o2)CC1` [Compound 49], greater than 100 nM; in that of `COC1CN(c2nnc(C3CCN(NC(=O)COc4ccc(Cl)c(F)c4)CC3)o2)C1` [Compound 1], 10 to 100 nM. Same read-out and setting: next, `O=C(COc1ccccc1F)N[C@H]1CC[C@H](c2nnc(N3CC(OC(F)(F)F)C3)o2)CC1` [Compound 29]: greater than 100 nM; `O=C(COc1ccc(Cl)c(F)c1)NC12CCC(c3nnc(N4CC(OC(F)(F)F)C4)o3)(CC1)CC2O` (stereo not drawn) [Compound 4]: less than 1 nM. As for `O=C(COc1cccc(Cl)c1Cl)N[C@H]1CC[C@H](c2nnc(N3CC(OC(F)(F)F)C3)o2)CC1` [Compound 32], the EC50 is greater than 100 nM. Still for that read-out and setting: in the case of `O=C(COc1cc(F)c(Cl)c(F)c1)N[C@H]1CC[C@H](c2nnc(N3CC(OC(F)(F)F)C3)o2)CC1` [Compound 47] it was 1 to 10 nM; in that of `O=C(COc1ccc(Cl)c(F)c1)NC12CCC(c3nnc(N4CC(OC(F)(F)C(F)(F)F)C4)o3)(CC1)CC2` [Compound 10], 1 to 10 nM; in that of `O=C(COc1ccc(F)c(Cl)c1)N[C@H]1CC[C@H](c2nnc(N3CC(OC(F)(F)F)C3)o2)CC1` [Compound 25], 1 to 10 nM. On the same count and under the same terms, in the case of `Fc1cc(OCC(=S)N[C@H]2CC[C@H](c3nnc(N4CC(OC(F)(F)F)C4)o3)CC2)ccc1Cl` [Compound 12] it was 1 to 10 nM. Consider `O=C(COc1ccc(Cl)c(Cl)c1)N[C@H]1CC[C@H](c2nnc(N3CC(OC(F)(F)F)C3)o2)CC1` [Compound 28], for which the concentration for a half-maximal effect (EC50) is less than 1 nM.

Compound `O=C(COc1ccc(Cl)c(F)c1)NC12CCC(c3nnc(N4CC5(C4)CC(F)(F)C5)o3)(CC1)CC2` [Compound 8] came in with a concentration giving a half-maximal response (EC50) of 10 to 100 nM.

`O=C(COc1ccc(Cl)cc1F)N[C@H]1CC[C@H](c2nnc(N3CC(OC(F)(F)F)C3)o2)CC1` [Compound 33] had a concentration for a half-maximal effect (EC50) of 1 to 10 nM.

For the compound `CP(C)(=O)C1CN(c2nnc(C34CCC(NC(=O)COc5ccc(Cl)c(F)c5)(CC3)CC4)o2)C1` [Compound 9], the EC50 was greater than 100 nM.

In the case of `O=C(COc1ccc(F)cc1F)N[C@H]1CC[C@H](c2nnc(N3CC(OC(F)(F)F)C3)o2)CC1` [Compound 30], the EC50 was greater than 100 nM.

`O=C(COc1ccc(F)cc1Cl)N[C@H]1CC[C@H](c2nnc(N3CC(OC(F)(F)F)C3)o2)CC1` [Compound 31] came in with an EC50 greater than 100 nM. Still for that read-out and setting: in the case of `O=C(COc1ncc(C(F)(F)F)s1)N[C@H]1CC[C@H](c2nnc(N3CC(OC(F)(F)F)C3)o2)CC1` [Compound 53] it was greater than 100 nM; in that of `O=C(N[C@H]1CC[C@H](c2nnc(N3CC(OC(F)(F)F)C3)o2)CC1)c1ccc2cc(Cl)ccc2n1` [Compound 44], 1 to 10 nM. For `O=C(COc1ccc(Cl)cn1)N[C@H]1CC[C@H](c2nnc(N3CC(OC(F)(F)F)C3)o2)CC1` [Compound 18], the EC50 lay within 10 to 100 nM. On the same count and under the same terms, in the case of `O=C(N[C@H]1CC[C@H](c2nnc(N3CC(OC(F)(F)F)C3)o2)CC1)c1cnc(C(F)F)cn1` [Compound 45] it was greater than 100 nM; in that of `O=C(COc1ccc(Cl)c(F)c1F)N[C@H]1CC[C@H](c2nnc(N3CC(OC(F)(F)F)C3)o2)CC1` [Compound 50], 1 to 10 nM.

`Cc1csc(C(=O)N[C@H]2CC[C@H](c3nnc(N4CC(OC(F)(F)F)C4)o3)CC2)n1` [Compound 42] returned an EC50 greater than 100 nM. Compound `O=C(COc1ccc(F)cc1)N[C@H]1CC[C@H](c2nnc(N3CC(OC(F)(F)F)C3)o2)CC1` [Compound 21] came in with an EC50 of 10 to 100 nM.

`O=C(N[C@H]1CC[C@H](c2nnc(N3CC(OC(F)(F)F)C3)o2)CC1)c1nc(Cl)c[nH]1` [Compound 41]: the EC50 was greater than 100 nM. On the same count and under the same terms, next, `CN(c1nnc([C@H]2CC[C@H](NC(=O)COc3ccc(Cl)c(F)c3)CC2)o1)C1CC(C(F)(F)F)C1` (stereo partly drawn) [Compound 14]: 10 to 100 nM; `O=C(COc1ccc(Cl)c(F)c1)N[C@H]1CC[C@H](c2nnc(N3CC(OC(F)(F)F)C3)o2)C[C@H]1O` [Compound 86]: 1 to 10 nM. With `O=C(COc1ccc(Cl)c(F)c1)N[C@H]1CC[C@H](c2nnc(N3CC(OC(F)F)C3)o2)CC1` [Compound 19], the EC50 was in the range of 1 to 10 nM. Compound `COC1CN(c2nnc(C3CCC(NC(=O)COc4ccc(Cl)c(F)c4)CC3)o2)C1` (stereo not drawn) [Compound 2] showed an EC50 of 10 to 100 nM.

With `O=C(COc1cccc(Cl)c1)N[C@H]1CC[C@H](c2nnc(N3CC(OC(F)(F)F)C3)o2)CC1` [Compound 23], the half-maximal effective concentration (EC50) was in the range of 10 to 100 nM.

In turn, `O=C(CO[C@H]1C[C@@H](OC(F)(F)F)C1)N[C@H]1CC[C@H](c2nnc(N3CC(OC(F)(F)F)C3)o2)CC1` [Compound 17] returned an EC50 of 10 to 100 nM. As for `O=C(COc1ccc(Cl)c(F)c1)NC12CCC(c3nnc(N4CC(OC(F)(F)F)C4)o3)(CC1)CC2` [Compound 3], the 50% effective concentration (EC50) lay in the range of 1 to 10 nM.

Take `O=C(COc1ncc(Cl)cn1)N[C@H]1CC[C@H](c2nnc(N3CC(OC(F)(F)F)C3)o2)CC1` [Compound 35]: the concentration for a half-maximal effect (EC50) was greater than 100 nM. The same measure, in the same setting: in the case of `O=C(COc1ccc(Cl)c(F)c1)N[C@H]1CC[C@H](c2nnc(NC3CC(C(F)(F)F)C3)o2)CC1` (stereo partly drawn) [Compound 11] it was 10 to 100 nM; in that of `Nc1cc(Cl)ccc1OCC(=O)N[C@H]1CC[C@H](c2nnc(N3CC(OC(F)(F)F)C3)o2)CC1` [Compound 52], greater than 100 nM; in that of `O=C(N[C@H]1CC[C@H](c2nnc(N3CC(OC(F)(F)F)C3)o2)CC1)c1cc(Cl)c[nH]1` [Compound 43], 10 to 100 nM.

In turn, `C[C@@H]1[C@@H](OC(F)(F)F)CN1c1nnc([C@H]2CC[C@H](NC(=O)COc3ccc(Cl)c(F)c3)CC2)o1` [Compound 51-1] showed an EC50 of 10 to 100 nM. Compound `O=C(CO[C@H]1CC[C@H](c2nnc(N3CC(OC(F)(F)F)C3)o2)CC1)Nc1ccc(Cl)c(F)c1` [Compound 90] gave a concentration for a half-maximal effect (EC50) of 1 to 10 nM.

Tested on in the next data set: not listed separately
Description: Cell membrane permeability (A to B / B to A, efflux ratio). The class given is in vitro ADME.
Conditions: not given
The procedure: The test compounds were diluted from 10 mM stock solutions to a concentration of 10 μM using the transport buffer (HBSS+BSA) and applied to the apical or basolateral side of the cell monolayer. After the incubation at 37° C., 5% CO2 and 95% relative humidity for 120 minutes, the permeability of the test compounds in the A to B direction or the B to A direction was tested in duplicate. In addition, the efflux ratio of each compound was determined. The test substances and reference substances were quantitatively analyzed by the LC-MS/MS method based on the analyte/IS peak area ratio.
Regarding `C[C@H]1O[C@@H](O[C@H]2[C@@H](O)C[C@H](O[C@H]3[C@@H](O)C[C@H](O[C@H]4CC[C@@]5(C)[C@H](CC[C@@H]6[C@@H]5C[C@@H](O)[C@]5(C)[C@@H](C7=CC(=O)OC7)CC[C@]65O)C4)O[C@@H]3C)O[C@@H]2C)C[C@H](O)[C@@H]1O` [Digoxin, reference compound], the efflux ratio at 120 min, 10 µM worked out at 44.1.

Values taken from patent US12612392B2, “Compound, pharmaceutical compositions containing same, synthesis method therefor and use thereof” (SHENZHEN ZHONGGE BIOLOGICAL TECHNOLOGY CO., LTD., priority 2022, dated 2026).
